In article PMC10682394, “A papain-like cysteine protease-released small signal peptide confers wheat resistance to wheat yellow mosaic virus” (Nature Communications, 2023):
Peptide text beside a SMILES is read from it. * marks the point of attachment. AMC = Cc1cc(=O)oc2cc(N*)ccc12; Cbz = O=C(OCc1ccccc1)*

Biological target: T1, TaRD21A (TaRD21A^S; TaRD21A^R in A96S rows) (Triticum aestivum, UniProt A0A3B6DKH2)
T1 construct: gene LOC123054921; GST fusion from E. coli BL21 (purified), or RFP fusion expressed in N. benthamiana leaves (apoplastic fluid); active bands 25-40 kDa
T1 sequence (A0A3B6DKH2 24-463, stated change not applied): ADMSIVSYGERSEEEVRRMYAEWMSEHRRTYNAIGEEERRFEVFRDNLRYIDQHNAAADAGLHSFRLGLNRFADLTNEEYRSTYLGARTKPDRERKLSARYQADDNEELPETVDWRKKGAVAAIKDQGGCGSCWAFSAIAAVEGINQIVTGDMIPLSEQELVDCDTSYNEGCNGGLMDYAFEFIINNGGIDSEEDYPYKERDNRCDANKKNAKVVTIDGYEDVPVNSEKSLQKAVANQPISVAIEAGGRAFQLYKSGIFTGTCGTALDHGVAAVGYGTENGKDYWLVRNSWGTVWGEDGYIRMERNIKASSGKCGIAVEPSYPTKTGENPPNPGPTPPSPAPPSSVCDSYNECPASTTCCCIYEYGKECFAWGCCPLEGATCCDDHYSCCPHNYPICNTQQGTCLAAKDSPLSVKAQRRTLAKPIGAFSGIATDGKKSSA
Assay: fluorescent substrate assay, purified TaRD21A^S-GST
Assay type: biochemical
Conditions: 10 uM substrate

Row | SMILES | fluorescent substrate assay, purified TaRD21A^S-GST (RR motif) | fluorescent substrate assay, purified TaRD21A^S-GST (FR motif)
1 | Cc1cc(=O)oc2cc(NC(=O)[C@H](CCCNC(=N)N)NC(=O)[C@H](CCCNC(=N)N)NC(=O)OCc3ccccc3)ccc12 [Z-Arg-Arg-AMC] (Cbz-Arg-Arg-{AMC}) | examined using fluorescent substrates containing RR/FR motifs | 
2 | Cc1cc(=O)oc2cc(NC(=O)[C@H](CCCNC(=N)N)NC(=O)[C@H](Cc3ccccc3)NC(=O)OCc3ccccc3)ccc12 [Z-Phe-Arg-7-amido-4-methylcoumarin] (Cbz-Phe-Arg-{AMC}) |  | examined using fluorescent substrates containing RR/FR motifs
